In one assay the test system is Kasumi-1 cells. Put plainly: Kasumi-1 cellular viability assay (ATP-Lite, 72 h). The class given is cell-based. Conditions: Homo sapiens, ATP-Lite luminescence, % viability relative to DMSO. Summed up:
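Viability was read by ATP-Lite One Step luminescence after 72 h compound treatment at 37 °C/5% CO2, normalised to DMSO control, with IC50 fitted from concentration-response. Cells were Kasumi-1 (AML FAB M2) at 15000 per well in RPMI-1640/10% FBS, 0.1% DMSO final.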

For another assay, the system named is Caov-3 cells. Put plainly: Caov-3 cellular viability assay (ATP-Lite, 72 h). The format is cell-based. Conditions: Homo sapiens, ATP-Lite luminescence, % viability relative to DMSO. In a few lines:
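IC50 values come from concentration-response fits of luminescent ATP content (ATP-Lite One Step), normalised as % viability versus DMSO. Compound exposure was 72 h at 37 °C in RPMI-1640/10% FBS with 0.1% final DMSO. Wells held 10000 cells each.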

In assay [1] the target is T1, recombinant METTL3/METTL14 complex (Homo sapiens, UniProt Q86U44).
T1 construct: purchased Active Motif 311970; host or cells: Sf9 cells
T1 sequence (Q86U44 whole entry): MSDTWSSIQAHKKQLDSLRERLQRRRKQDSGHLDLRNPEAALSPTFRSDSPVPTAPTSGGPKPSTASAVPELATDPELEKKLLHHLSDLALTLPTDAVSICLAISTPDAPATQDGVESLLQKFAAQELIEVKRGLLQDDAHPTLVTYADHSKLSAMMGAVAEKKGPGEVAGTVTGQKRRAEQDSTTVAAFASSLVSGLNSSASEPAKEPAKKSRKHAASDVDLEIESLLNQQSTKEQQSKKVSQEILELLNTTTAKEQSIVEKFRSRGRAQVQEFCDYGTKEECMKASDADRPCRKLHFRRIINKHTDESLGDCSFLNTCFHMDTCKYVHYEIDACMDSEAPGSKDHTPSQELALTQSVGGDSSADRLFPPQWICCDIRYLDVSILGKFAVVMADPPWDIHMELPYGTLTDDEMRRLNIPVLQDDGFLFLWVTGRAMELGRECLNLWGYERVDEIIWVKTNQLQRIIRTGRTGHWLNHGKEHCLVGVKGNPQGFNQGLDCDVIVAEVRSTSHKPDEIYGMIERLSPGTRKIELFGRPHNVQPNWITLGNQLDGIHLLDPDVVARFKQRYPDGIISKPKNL
T1 sequence (Q9HCE5 whole entry partner): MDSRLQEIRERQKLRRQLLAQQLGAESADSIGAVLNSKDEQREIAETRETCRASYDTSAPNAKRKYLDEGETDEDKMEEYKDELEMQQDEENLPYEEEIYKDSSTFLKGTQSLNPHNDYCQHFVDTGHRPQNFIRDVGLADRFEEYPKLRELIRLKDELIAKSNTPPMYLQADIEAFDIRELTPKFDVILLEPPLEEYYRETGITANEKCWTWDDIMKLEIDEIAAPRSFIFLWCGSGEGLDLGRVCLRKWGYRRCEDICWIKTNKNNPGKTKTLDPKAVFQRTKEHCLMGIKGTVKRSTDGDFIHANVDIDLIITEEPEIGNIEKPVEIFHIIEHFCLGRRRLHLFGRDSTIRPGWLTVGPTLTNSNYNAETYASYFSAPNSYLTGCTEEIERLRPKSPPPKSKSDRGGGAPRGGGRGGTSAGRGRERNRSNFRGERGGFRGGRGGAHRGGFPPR
In words: METTL3/14 Scintillation Proximity Assay (SPA), RNA methyltransferase activity. The following applies: 5.31 nM METTL3/14 complex, 250 nM RNA substrate, 1 μM 3H-SAM, 90 min; for compounds marked * best of the two separated forms. The format is biochemical. (In general: Scintillation proximity formats need no separation of bound from free tracer.)

24 molecules from patent US20250002475A1 (EPICS THERAPEUTICS, priority 2023, published 2025) can be followed below.

For the molecule `COc1cncc(-c2cn(C3(c4ccc(N5CCC[C@@H](NCC6CCC6)C5)cn4)COC3)nn2)c1` [Compound 150, (R)-N-(cyclobutylmethyl)-1-(6-(3-(4-(5-methoxypyridin-3-yl)-1H-1,2,3-triazol-1-yl)oxetan-3-yl)pyridin-3-yl)piperidin-3-amine], the IC50 was at most 500 nM with Kasumi-1 cells, at most 500 nM in the assay on Caov-3 cells and at most 50 nM in assay [1].

Take `c1cc(C2(n3cc(-c4cncc(N5CC6CC6C5)n4)nn3)COC2)ncc1N1CCC[C@@H](NCC2CCC2)C1` (stereo partly drawn) [Compound 291, (3R)-1-(6-(3-(4-(6-(3-azabicyclo[3.1.0]hexan-3-yl)pyrazin-2-yl)-1H-1,2,3-triazol-1-yl)oxetan-3-yl)pyridin-3-yl)-N-(cyclobutylmethyl)piperidin-3-amine]: the figures for the IC50 (in the assay with Kasumi-1 cells; in the assay with Caov-3 cells; in assay [1]) were at most 500 nM, at most 500 nM and at most 50 nM, respectively.

With `CC(N[C@@H]1CCCN(c2ccc(C3(C(=O)Nc4cc(=O)n5ccccc5n4)COC3)nc2)C1)C1CCC1` (mixture of isomers) [Compound 336, 3-(5-((3R)-3-((1-cyclobutylethyl)amino)piperidin-1-yl)pyridin-2-yl)-N-(4-oxo-4H-pyrido[1,2-a]pyrimidin-2-yl)oxetane-3-carboxamide], the half-maximal inhibitory concentration (IC50) in the assay on Kasumi-1 cells is at most 500 nM; in the assay on Caov-3 cells, at most 500 nM; in assay [1], at most 50 nM.

For the molecule `O=C(Nc1cncc(N2CCCC2)n1)C1(c2ccc(N3CCC[C@@H](NCC45CC(F)(C4)C5)C3)cn2)COC1` [Compound 269, (R)-3-(5-(3-(((3-fluorobicyclo[1.1.1]pentan-1-yl)methyl)amino)piperidin-1-yl)pyridin-2-yl)-N-(6-(pyrrolidin-1-yl)pyrazin-2-yl)oxetane-3-carboxamide], the IC50 with Kasumi-1 cells was at most 500 nM; in the assay with Caov-3 cells it was at most 500 nM; in assay [1], at most 50 nM.

As for `CCC(c1ccc(N2CCC[C@@H](NCC3CCC3)C2)nn1)n1cc(-c2cncc(OC)c2)nn1` (single isomer, unassigned) [Compound 085], the concentration for half-maximal inhibition (IC50) is over 5000 nM in the assay with Kasumi-1 cells, 500 to 5000 nM in the assay with Caov-3 cells and at most 50 nM in assay [1].

Take `O=C(Nc1cc(=O)n2ccccc2n1)C1(c2ccc(N3CCC[C@@H](NCC4CC4)C3)cn2)COC1` [Compound 217, (R)-3-(5-(3-((cyclopropylmethyl)amino)piperidin-1-yl)pyridin-2-yl)-N-(4-oxo-4H-pyrido[1,2-a]pyrimidin-2-yl)oxetane-3-carboxamide]: the IC50 in the assay on Kasumi-1 cells was at most 500 nM; with Caov-3 cells it was at most 500 nM; in assay [1], at most 50 nM.

For the molecule `c1ncc(C2CC2)cc1-c1nnc(Cc2ccc(N3CCC[C@@H](NCC4CC4)C3)cn2)s1` [Compound 362, (R)-N-(cyclopropylmethyl)-1-(6-((5-(5-cyclopropylpyridin-3-yl)-1,3,4-thiadiazol-2-yl)methyl)pyridin-3-yl)piperidin-3-amine], the IC50 is at most 500 nM with Kasumi-1 cells, at most 500 nM in the assay with Caov-3 cells and at most 50 nM in assay [1].

Consider `CC(n1cc(-c2cncc(N3CCC(F)(F)C3)n2)nn1)n1ccc(N2CCC[C@@H](NCC3CC3)C2)cc1=O` (single isomer, unassigned) [Compound 227], for which the IC50 with Kasumi-1 cells was at most 500 nM; in the assay with Caov-3 cells, at most 500 nM; in assay [1] it was at most 50 nM.

Consider `CN(C)c1cncc(-c2cn(C3(c4ccc(N5CCC[C@@H](NCC6CCC6)C5)cc4)COC3)nn2)c1` [Compound 148, (R)-5-(1-(3-(4-(3-((cyclobutylmethyl)amino)piperidin-1-yl)phenyl)oxetan-3-yl)-1H-1,2,3-triazol-4-yl)-N,N-dimethylpyridin-3-amine], for which the IC50 in the assay on Kasumi-1 cells is at most 500 nM; with Caov-3 cells, at most 500 nM; in assay [1] it was at most 50 nM.

As for `O=C(Nc1cc(=O)n2ccccc2n1)C1(c2ccc(N3CCC[C@@H](NCC45CC(F)(C4)C5)C3)cn2)COC1` [Compound 263, (R)-3-(5-(3-(((3-fluorobicyclo[1.1.1]pentan-1-yl)methyl)amino)piperidin-1-yl)pyridin-2-yl)-N-(4-oxo-4H-pyrido[1,2-a]pyrimidin-2-yl)oxetane-3-carboxamide], the IC50 in the assay with Kasumi-1 cells is at most 500 nM; in the assay with Caov-3 cells it was at most 500 nM; in assay [1], at most 50 nM.

On to `CC(n1cc(-c2cncc(N3CCC(C)(C)C3)n2)nn1)n1ccc(N2CCC[C@@H](NCC3CC3)C2)cc1=O` (single isomer, unassigned) [Compound 230], for which the values for the half-maximal inhibitory concentration (IC50) (in the assay with Kasumi-1 cells; in the assay on Caov-3 cells; in assay [1]) were at most 500 nM, at most 500 nM and at most 50 nM, respectively.

On to `CCN(C)c1cncc(-c2cn(C(C)n3ccc(N4CCC[C@@H](NCC5CC5)C4)cc3=O)nn2)c1` (stereo partly drawn) [Compound 203], for which the results for the IC50 (in the assay on Kasumi-1 cells; with Caov-3 cells; in assay [1]) were at most 500 nM, at most 500 nM and at most 50 nM, respectively.

Turning to `CC(c1cnc(-c2cncc(N3CCCC3)n2)o1)n1ccc(N2CCC[C@@H](NCC3CC3)C2)cc1=O` (single isomer, unassigned) [Compound 242], the figures for the IC50 (with Kasumi-1 cells; in the assay with Caov-3 cells; in assay [1]) were at most 500 nM, at most 500 nM and at most 50 nM, respectively.

Turning to `c1cc(C2(n3cc(-c4cncc(N5CC6(COC6)C5)n4)nn3)COC2)ncc1N1CCC[C@@H](NCC2CC2)C1` [Compound 221, (R)-1-(6-(3-(4-(6-(2-oxa-6-azaspiro[3.3]heptan-6-yl)pyrazin-2-yl)-1H-1,2,3-triazol-1-yl)oxetan-3-yl)pyridin-3-yl)-N-(cyclopropylmethyl)piperidin-3-amine], the IC50 with Kasumi-1 cells was 500 to 5000 nM; in the assay with Caov-3 cells it was 500 to 5000 nM; in assay [1], at most 50 nM.

On to `COc1cncc(-c2cn(C(C)c3ccc(N4CCC[C@@H](NCC5CCC5)C4)nc3F)nn2)c1` (single isomer, unassigned) [Compound 138], for which the values for the concentration for half-maximal inhibition (IC50) (in the assay with Kasumi-1 cells; in the assay on Caov-3 cells; in assay [1]) were 500 to 5000 nM, 500 to 5000 nM and at most 50 nM, respectively.

On to `CC(c1ccc(N2CCC[C@@H](NCC3(C)CC3)C2)nn1)n1cnc(-c2cncc(N3CCCC3)n2)c1` (single isomer, unassigned) [Compound 348], for which the results for the IC50 (in the assay with Kasumi-1 cells; in the assay with Caov-3 cells; in assay [1]) were at most 500 nM, at most 500 nM and at most 50 nM, respectively.

For `CC1(CN[C@@H]2CCCN(c3ccc(C4(n5cc(-c6cncc(C7CC7)c6)nn5)COC4)nc3)C2)CC1` [Compound 333, (R)-1-(6-(3-(4-(5-cyclopropylpyridin-3-yl)-1H-1,2,3-triazol-1-yl)oxetan-3-yl)pyridin-3-yl)-N-((1-methylcyclopropyl)methyl)piperidin-3-amine], the IC50 in the assay with Kasumi-1 cells is at most 500 nM; with Caov-3 cells it was at most 500 nM; in assay [1] it was at most 50 nM.

On to `c1cc(C2(n3cc(-c4cncc(N5CC6CC6C5)n4)nn3)COC2)ncc1N1CCC[C@@H](NCC2CC2)C1` (stereo partly drawn) [Compound 216, (3R)-1-(6-(3-(4-(6-(3-azabicyclo[3.1.0]hexan-3-yl)pyrazin-2-yl)-1H-1.2.3-triazol-1-yl)oxetan-3-yl)pyridin-3-yl)-N-(cyclopropylmethyl)piperidin-3-amine], for which the IC50 in the assay on Kasumi-1 cells is at most 500 nM; with Caov-3 cells, at most 500 nM; in assay [1] it was at most 50 nM.

For the molecule `O=c1cc(-c2cn(C3(c4ccc(N5CCC[C@@H](NCC6CC6)C5)cn4)COC3)nn2)nc2ccccn12` [Compound 316, (R)-2-(1-(3-(5-(3-((cyclopropylmethyl)amino)piperidin-1-yl)pyridin-2-yl)oxetan-3-yl)-1H-1,2,3-triazol-4-yl)-4H-pyrido[1,2-a]pyrimidin-4-one], the IC50 is 500 to 5000 nM in the assay on Kasumi-1 cells, 500 to 5000 nM in the assay on Caov-3 cells and at most 50 nM in assay [1].

In the case of `CC1(C)CCN(c2cncc(-c3cn(C4(c5ccc(N6CCC[C@@H](NCC7CC7)C6)cn5)COC4)nn3)n2)C1` [Compound 214, (R)-N-(cyclopropylmethyl)-1-(6-(3-(4-(6-(3,3-dimethylpyrrolidin-1-yl)pyrazin-2-yl)-1H-1,2,3-triazol-1-yl)oxetan-3-yl)pyridin-3-yl)piperidin-3-amine], the IC50 was at most 500 nM with Kasumi-1 cells, at most 500 nM in the assay on Caov-3 cells and at most 50 nM in assay [1].

With `c1cc(C2(n3cc(-c4cncc(N5CCCC5)n4)nn3)COC2)ccc1N1CCC[C@@H](NCC2CCC2)C1` [Compound 301, (R)-N-(cyclobutylmethyl)-1-(4-(3-(4-(6-(pyrrolidin-1-yl)pyrazin-2-yl)-1H-1,2,3-triazol-1-yl)oxetan-3-yl)phenyl)piperidin-3-amine], the IC50 in the assay on Kasumi-1 cells was at most 500 nM; in the assay on Caov-3 cells it was at most 500 nM; in assay [1], at most 50 nM.

Turning to `O=C(Nc1cc(=O)n2ccccc2n1)C1(c2ccc(N3CCC[C@@H](NC4CCC4)C3)cn2)COC1` [Compound 327, (R)-3-(5-(3-(cyclobutylamino)piperidin-1-yl)pyridin-2-yl)-N-(4-oxo-4H-pyrido[1,2-a]pyrimidin-2-yl)oxetane-3-carboxamide], the IC50 is 500 to 5000 nM in the assay on Kasumi-1 cells, 500 to 5000 nM with Caov-3 cells and at most 50 nM in assay [1].

`COC1CN(c2cncc(-c3cn(C(C)n4ccc(N5CCC[C@@H](NCC6CC6)C5)cc4=O)nn3)n2)C1` (single isomer, unassigned) [Compound 246]: the IC50 in the assay on Kasumi-1 cells is at most 500 nM; in the assay on Caov-3 cells, at most 500 nM; in assay [1], at most 50 nM.

Turning to `CN(C)c1cncc(-c2cn(C3(c4ccc(N5CCC[C@@H](NCC6CC6)C5)cn4)COC3)nn2)c1` [Compound 184, (R)-5-(1-(3-(5-(3-((cyclopropylmethyl)amino)piperidin-1-yl)pyridin-2-yl)oxetan-3-yl)-1H-1,2,3-triazol-4-yl)-N,N-dimethylpyridin-3-amine], the IC50 in the assay with Kasumi-1 cells was at most 500 nM; in the assay on Caov-3 cells, at most 500 nM; in assay [1] it was at most 50 nM.

Broadly, the IC50 is the concentration that inhibits the measured activity by half.
